pIC50: −log10 of the molar value. Active and inactive are the calls of the source. No rule for the calls is given here.

For the test, the system named is L. donovani-infected THP-1 macrophages, intracellular amastigote imaging. In words: intracellular L. donovani amastigote inhibition, imaging, THP-1 host macrophages, host toxicity (AID 1159564).
The mark [1] stands for this setting: measured here: THP-1 host cell toxicity.
[2] abbreviates: measured here: amastigotes per macrophage.

The IC50 is the midpoint of a concentration-inhibition curve. For orientation: pIC50 means the IC50 on a negative log10 scale, so that one unit is a factor of ten. With `Cn1ccnc1CN1CCc2[nH]cnc2C1c1ccccc1OCc1ccccc1` (stereo unspecified), the IC50 was > 50 µM (inactive). For the same compound, the pIC50 under setting [1] is below 4.30. Also, the negative-log IC50 (pIC50) under setting [2] is below 4.30.

Regarding `CCCc1cc(C(=O)Nc2ncc(-c3cccc(Br)c3)n2C)n[nH]1`, the pIC50 was 5.30. The compound also gave a negative-log IC50 (pIC50) under setting [1] of 4.49. Also, the negative-log IC50 (pIC50) under setting [2] is 5.40.

For the compound `CN(Cc1nc2ccc(C(=O)NCC3CCCCC3)cc2[nH]1)C1CCCc2cccnc21` (stereo unspecified), the negative logarithm of the IC50 (pIC50) is 6.30. The compound also had a pIC50 under setting [1] of 5.20. Moreover, the pIC50 under setting [2] is 6.40.

In the case of `COCCn1c(-c2ccc3c(c2)OCO3)cnc1NCc1ccccc1OC`, the pIC50 was 5.00. Also, under setting [1], the pIC50 is 4.40. The compound also gave a pIC50 under setting [2] of 5.30.

Turning to `COc1ccc(C2CC(c3ccccc3Cl)=NN2C(=O)CNC(=O)C2CCC2)cc1` (stereo unspecified), the IC50 is > 50 µM (inactive). Under setting [1], this compound showed a pIC50 below 4.30. Further, the negative logarithm of the IC50 (pIC50) under setting [2] was below 4.30.

As for `CCOc1ccc(CN(C)Cc2nc(N)nc(Nc3ccc(C)cc3)n2)cc1`, the pIC50 was 5.40. The same compound gave a negative-log IC50 (pIC50) under setting [1] of 4.40. This compound also showed a negative logarithm of the IC50 (pIC50) under setting [2] of 5.49.

For `CC(C)Nc1nc(Cl)nc2ccccc12`, the pIC50 is 5.60. Moreover, under setting [1], the negative logarithm of the IC50 (pIC50) is 4.70. Under setting [2], the pIC50 was 5.89.

`Cc1sc(C)c(C(F)(F)F)c1CNCCCNc1cc(=O)c2ccccc2[nH]1`: the pIC50 is 4.30. Under setting [1], this compound showed a negative logarithm of the IC50 (pIC50) of 4.49. Under setting [2], the negative-log IC50 (pIC50) is 4.60.

Take `O=C(CCc1ccc(-c2ccccc2)o1)N1CCN(c2ccc(O)cc2)CC1`: the negative logarithm of the IC50 (pIC50) is 5.40. The compound also had a negative logarithm of the IC50 (pIC50) under setting [1] below 4.30. Under setting [2], this compound gave a negative logarithm of the IC50 (pIC50) of 5.89.

Regarding `CCC(=O)N1N=C(c2ccc3c(c2)CCCC3)Sc2c1ncn2C(=O)CC`, the pIC50 was 5.49. This compound showed a negative logarithm of the IC50 (pIC50) under setting [1] below 4.30. The same compound gave a negative-log IC50 (pIC50) under setting [2] of 5.60.

Consider `CCCCCNC(=O)c1c[nH]c2ccc(S(=O)(=O)N(C)c3ccc(OCC)cc3)cc2c1=O`, for which the IC50 is > 50 µM (inactive). For the same compound, the negative logarithm of the IC50 (pIC50) under setting [1] is below 4.30. In addition, the pIC50 under setting [2] is below 4.30.

For `COc1ccc2nccc([C@H](O)CN3CC[C@H](NC(=O)c4ccc(Br)cc4)[C@@H](O)C3)c2n1`, the IC50 is > 50 µM (inactive). In addition, the negative-log IC50 (pIC50) under setting [1] was below 4.30. Under setting [2], the negative-log IC50 (pIC50) was below 4.30.

With `O=C1OCc2ccc(Nc3nccc(-c4cnn5ncccc45)n3)cc21`, the negative-log IC50 (pIC50) is 7.80. This compound also gave a negative logarithm of the IC50 (pIC50) under setting [1] of 8.10. Moreover, the pIC50 under setting [2] is 7.89.

Consider `Cn1nc([N+](=O)[O-])nc1N1CCCCC1`, for which the IC50 is > 50 µM (inactive). In addition, the pIC50 under setting [1] was below 4.30. The pIC50 under setting [2] was below 4.30.

On to `COc1ccc(C(C)(C)C)cc1S(=O)(=O)n1ccnc1`, for which the IC50 is > 50 µM (inactive). Moreover, the pIC50 under setting [1] is below 4.30. Under setting [2], this compound showed a negative-log IC50 (pIC50) of 4.60.

`O=C(NC1CCN(C2Cc3ccc(NS(=O)(=O)c4cc(F)cc(F)c4)cc3C2)CC1)C1CC1` (stereo unspecified): the IC50 was > 50 µM (inactive). Further, the pIC50 under setting [1] is 4.89. Besides, under setting [2], the negative logarithm of the IC50 (pIC50) was 4.89.

Regarding `CC(C)(C)C(=O)NCCc1csc(-c2ccc(F)cc2)n1`, the IC50 is > 50 µM (inactive). Besides, the pIC50 under setting [1] was below 4.30. The compound also had a pIC50 under setting [2] below 4.30.

For `CCCc1cc(N)nc(-c2cc(CCC)cc(N)n2)c1`, the pIC50 is 5.60. In addition, the pIC50 under setting [1] was 4.70. For the same compound, under setting [2], the negative logarithm of the IC50 (pIC50) was 5.80.

Turning to `Clc1ccc(OCCN2CCCCC2c2cccnc2)c(Cl)c1` (stereo unspecified), the IC50 is > 50 µM (inactive). The pIC50 under setting [1] is below 4.30. This compound showed a pIC50 under setting [2] of 5.30.

Take `N#Cc1ccc(Br)cc1[N+](=O)[O-]`: the pIC50 was 4.70. The negative-log IC50 (pIC50) under setting [1] is 4.60. For the same compound, the negative-log IC50 (pIC50) under setting [2] was 4.89.

Regarding `Cn1nccc1NC(=O)Cn1ccc(-c2ccncc2)n1`, the IC50 is > 50 µM (inactive). Under setting [1], this compound gave a negative logarithm of the IC50 (pIC50) below 4.30. The pIC50 under setting [2] is below 4.30.

`Cc1cc2cc(CNc3ccc4c(c3)OCO4)c(=O)n(CCO)c2cc1C`: the negative-log IC50 (pIC50) was 6.30. The pIC50 under setting [1] is 4.40. Further, the pIC50 under setting [2] is 6.60.

Turning to `Cc1cc(C)nc(N2CCC(N(Cc3cccnc3)C(=O)c3cccc(C#N)c3)CC2)n1`, the IC50 was > 50 µM (inactive). The pIC50 under setting [1] was below 4.30. This compound had a pIC50 under setting [2] below 4.30.

Take `O=C(CC1(O)C(=O)N(Cc2ccccc2)c2ccc(Br)cc21)c1cccnc1` (stereo unspecified): the IC50 was > 50 µM (inactive). For the same compound, under setting [1], the pIC50 was 4.40. The negative-log IC50 (pIC50) under setting [2] is 4.49.

Regarding `CC1CCCN(S(=O)(=O)c2ccc(C(=O)Nc3nc(-c4ccccn4)cs3)cc2)C1` (stereo unspecified), the negative-log IC50 (pIC50) was 6.60. Further, the pIC50 under setting [1] is 5.30. This compound gave a negative-log IC50 (pIC50) under setting [2] of 6.80.

On to `Cc1[nH]c2ccccc2c(=O)c1Cc1c(C)[nH]c2ccccc2c1=O`, for which the IC50 was > 50 µM (inactive). The pIC50 under setting [1] was below 4.30. Besides, the pIC50 under setting [2] was below 4.30.

On to `Cc1ccccc1OCC(=O)N1CCCN(c2cccnn2)CC1`, for which the IC50 is > 50 µM (inactive). The compound also had a pIC50 under setting [1] below 4.30. This compound gave a pIC50 under setting [2] below 4.30.
